Positions of bridges follow the written chain, without caps; N, C: chain ends. Residues, ends and D or L forms follow the SMILES beside them. Chains are numbered I, II in the order given. No end group written: not given here.
Legend:
[1] = lipid 0.1 mM, 25 °C, outer NBD reduced with 100 mM dithionite, average of three experiments
Protocol: The extent of lipid mixing between only the inner monolayers of vesicles in solution, labelled with NBD and Rho, was determined adding an aqueous reducing agent (dithionite) which eliminated the NBD fluorescence from the vesicle membranes’ outer monolayer.
Figure 2 Inner monolayer in DOPC/Chol 60/40 (mol/mol) (A) and DOPG/Chol 60/40 (mol/mol) (B). […] Lipid concentration is 0.1 mM. Percentage of inner monolayer fusion as a function of the peptide/lipid ratio is reported and each trace represents an average of three independent experiments.
Membrane fusion was monitored by the fluorescence resonance energy transfer assay (FRET)[70] at 25 °C. Two populations of LUVs, one labelled with 0.6 mol% of NBD (donor) and Rho (acceptor) and one unlabelled were mixed and the variation in NBD fluorescence due to membrane fusion was determined. After the addition of aliquots of peptides the change in donor emission (excitation wavelength 465 nm, emission wavelength 530 nm) was monitored. […] The 100% of fusion was determined upon the addition of Triton X-100 (0.05% v/v). All results are an average of at least three experiments. A cut off filter at 515 nm was used.
The dithionite was removed through size exclusion chromatography, Sephadex G-50 DNA Grade, (GE Healthcare, Pharmacia, Uppsala, Sweden) with buffer containing 10 mM TRIS, 100 mM NaCl, and 1 mM EDTA, pH 7.4.

[2] = Surface plasmon resonance binding to lipid bilayer, L1 chip, two-state model; settings: affinity constant of second step, K2 = ka2/kd2
Description: To investigate the mode of action of gH625-H7 and gH625-G7 and for comparisons with gH625[6], we used SPR. In a previous paper[7] we also reported the data for two control peptides: the melittin and the HIV fusion peptide (gp41-FP). Figure 6 reports the obtained sensorgrams of the binding and an increase of the RU signal intensity as a function of the peptide concentration can be observed. […] In particular, all the sensorgrams obtained for gH625[7] and gH625-G7 indicate the binding to the lipid surfaces is characterized by an initial fast association process which then slows down considerably towards the end of the peptide injection. The dissociation follows a similar trend, characterized by the signal falling rapidly at the end of injection when the peptide is no longer present and the buffer flow removes free or weekly bound peptide.
The average values for the rate constants obtained with the two-state model analysis are reported in Table 4 along with the affinity constant values (K A). The data clearly indicate the main influence on the overall binding constant of the fast association rate and slow dissociation rate of the first step.
We used a BIAcore 3000 analytical system (Biacore, Uppsala, Sweden) equipped with a L1 sensor chip which contains hydrophobic alkanethiol chains, with exposed polar head groups; a lipid bilayer was created by introducing liposomes to the chip. SUVs composed by DOPG/Chol (60/40) (80 μL, 0.5 mM) were applied to the chip surface at a flow rate of 2 μL/min. […] BSA was used as a negative control (25 μL, 50 μL/min […] in PBS) to confirm complete coverage of the nonspecific binding sites. Several sensorgrams were obtained with 30 μL of the peptide solutions injected at a flow rate of 5 μL/min, followed by PBS for 15 min to allow peptide dissociation. […]
Kinetic data were assessed through the χ^2 values, plots of the residuals from the model fitting and standard deviations. […]

[3] = Acceptor photobleaching FRET, GUV fusion; settings: NBD/Rhodamine GUVs mixed 1:4 with unlabelled GUVs, peptide:GUVs ratio 0.5
Description: Figure 10 Mean fluorescence of GUVs suspension resulting after gH625 or gH625-H7 administration, calculated by the AccPbFRET plug in of ImageJ. The FRET efficiency E is 0.729, calculated as follows: E = 1 − (F Donor quenched by acceptor/F Donor de quenched) (A). Time course of FRET effect due to gH625 or gH625-H7 administration to GUVs. Values are expressed as integrated density, defined as the mean gray value per the mean area. Each time point represents the same field acquired in both channels. Each data set represents the mean of at least 10 GUVs for each field (B,C).
To evaluate the fusion of GUVs due to the addition of gH625 and gH625-H7, a slightly modified protocol for acceptor photobleaching FRET was performed. […] An aliquot of the mix was charged in the Burker’s chamber under Axioskop (Zeiss) fluorescence microscope; images were acquired using Axiocam Mrc5 CCD camera (Zeiss) in both at 525 nm and 615 nm and analysed with the Physiology module of Axiovision software 4.8 (Zeiss) to calculate the basic fluorescence of the donor. Samples were then treated with gH625 and gH625-H7 to a peptide:GUVs ratio of 0.5 and images were immediately acquired to calculate the fluorescence of the donor and the photobleaching of the acceptor (only used as a control for the amount of bleaching) after the exposure to peptides. […]

Molecule | fusion of the inner monolayer, DOPC/Chol LUVs [1] | K2 [2] | increase of donor (NBD) fluorescence compared to GUVs alone [3] | fusion of the inner monolayer, DOPG/Chol LUVs [1]
CC[C@H](C)[C@H](NC(=O)[C@H](CC(C)C)NC(=O)[C@H](C)NC(=O)[C@H](CC(N)=O)NC(=O)[C@H](Cc1ccc(O)cc1)NC(=O)[C@H](Cc1c[nH]cn1)NC(=O)[C@H](C)NC(=O)[C@H](Cc1c[nH]c2ccccc12)NC(=O)[C@H](CCCNC(=N)N)NC(=O)[C@@H](NC(=O)[C@H](CC(C)C)NC(=O)[C@@H](NC(=O)[C@H](CO)NC(=O)[C@H](C)NC(=O)[C@H](CC(C)C)NC(=O)CNC(=O)[C@@H](N)Cc1c[nH]cn1)[C@@H](C)O)[C@@H](C)O)C(=O)N[C@@H](CCCNC(=N)N)C(=O)N[C@@H](C)C(=O)N[C@@H](Cc1ccccc1)C(=O)NCC(=O)NCC(=O)NCC(=O)N[C@@H](CCCCN)C(=O)N[C@@H](CCCCN)C(=O)N[C@@H](CCCCN)C(=O)N[C@@H](CCCCN)C(N)=O [gH625-G7] (H-HGLASTLTRWAHYNALIRAFGGGKKKK-NH2) | only a small fusion | 5.72 |  | 
CC[C@H](C)[C@H](NC(=O)[C@H](CC(C)C)NC(=O)[C@H](C)NC(=O)[C@H](CC(N)=O)NC(=O)[C@H](Cc1ccc(O)cc1)NC(=O)[C@H](Cc1c[nH]cn1)NC(=O)[C@H](C)NC(=O)[C@H](Cc1c[nH]c2ccccc12)NC(=O)[C@H](CCCNC(=N)N)NC(=O)[C@@H](NC(=O)[C@H](CC(C)C)NC(=O)[C@@H](NC(=O)[C@H](CO)NC(=O)[C@H](C)NC(=O)[C@H](CC(C)C)NC(=O)CNC(=O)[C@@H](N)Cc1c[nH]cn1)[C@@H](C)O)[C@@H](C)O)C(=O)N[C@@H](CCCNC(=N)N)C(=O)N[C@@H](C)C(=O)N[C@@H](Cc1ccccc1)C(N)=O [gH625] (H-HGLASTLTRWAHYNALIRAF-NH2) | only a small fusion | 0.41 | 3.71 fold | 
I: HGLASTLTRWAHYNALIRAFGCGKKKK-NH2 / II: HGLASTLTRWAHYNALIRAFGCGKKKK-NH2 (disulfide I:22-II:22) [gH625-H7] | complete fusion | 3.89 | 3.92 fold | complete fusion

Source: PMC5572722, “Dimerization in tailoring uptake efficacy of the HSV-1 derived membranotropic peptide gH625” (Scientific Reports, 2017)
